Experimental data from patent US7868005B2, “Pyrazinyl substituted piperazine-piperidines with CXCR3 antagonist activity” (Schering Corporation, priority 2005, dated 2011).
pIC50: −log10 of the molar value.

biological target: T1, human CXCR3 (N-delta 4) (Homo sapiens, UniProt P49682); experiment: Human CXCR3 (N-delta 4) Scintillation Proximity Assay (SPA), [125I] IP-10 binding to Ba/F3-hCXCR3 membranes; conditions: IC50 rating, Table 1; read-out: IC50
T1 construct: CD8 leader (N); Flag; expressed in transfected cells; membranes prepared
T1 sequence (P49682 5-368 limits assumed): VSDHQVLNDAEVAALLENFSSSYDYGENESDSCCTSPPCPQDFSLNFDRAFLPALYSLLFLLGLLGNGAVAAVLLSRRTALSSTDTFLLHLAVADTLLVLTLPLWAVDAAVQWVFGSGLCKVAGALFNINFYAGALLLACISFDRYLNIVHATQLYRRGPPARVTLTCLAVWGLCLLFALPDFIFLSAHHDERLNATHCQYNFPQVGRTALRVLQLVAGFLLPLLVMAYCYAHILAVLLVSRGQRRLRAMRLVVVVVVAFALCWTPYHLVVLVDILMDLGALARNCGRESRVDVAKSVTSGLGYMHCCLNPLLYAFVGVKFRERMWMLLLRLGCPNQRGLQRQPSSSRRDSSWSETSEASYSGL

Q: With `CC[C@H]1CN(c2nc(N)c(C(=O)OC)nc2Cl)CCN1C1CCN(Cc2ccc(Cl)cc2OCCNC(=O)NC(C)(C)C)CC1` [compound 297] as the compound, how does the pIC50 read?
A: 7.00 to 7.60

Q: `CCNC(=O)NCCc1cc(Cl)ccc1CN1CCC(N2CCN(c3nc(N)c(C(=O)OC)nc3Cl)C[C@@H]2CC)CC1` [compound 298] was tested. Which pIC50 did it give?
A: 7.00 to 7.60

Q: How did the pIC50 turn out when `CC[C@H]1CN(c2nc(N)c(C(=O)OC)nc2Cl)CCN1C1CCN(Cc2ccc(Cl)cc2CC#N)CC1` [compound 299] was run?
A: 7.00 to 7.60

Q: With `CC[C@H]1CN(c2nc(N)c(C(=O)OC)nc2Cl)CCN1C1CCN(Cc2ccc(Cl)cc2C#N)CC1` [compound 300] as the compound, how does the pIC50 read?
A: < 7.00

Q: How did the pIC50 turn out when `COC(=O)c1nc(Cl)c(N2C[C@H](C)N(C3CCN(Cc4ccc(Cl)cc4F)CC3)C[C@H]2C)nc1N` [compound 301] was run?
A: < 7.00

Q: How did the pIC50 turn out when `COC(=O)c1nc(Cl)c(N2CCN(C3CCN(Cc4ccc(Cl)cc4)CC3)[C@@H](C)C2)nc1N` [compound 302] was run?
A: < 7.00

Q: `CC[C@H]1CN(c2nc(N)c(C(=O)OC)nc2Cl)CCN1C1CCN(Cc2ccc(Cl)cc2CCNS(C)(=O)=O)CC1` [compound 303] was tested. Which pIC50 did it give?
A: < 7.00

Q: How did the pIC50 turn out when `CC[C@H]1CN(c2nc(N)c(C(=O)NCCO)nc2Cl)CCN1C1CCN(C2c3ccc(C#N)cc3CCC2O)CC1` (stereo partly drawn) [compound 304] was run?
A: > 7.60

Q: With `CC[C@H]1CN(c2nc(N)c(C(=O)OC)nc2Cl)CCN1C1CCN(C2c3ccc(C#N)cc3CCC2O)CC1` (stereo partly drawn) [compound 305] as the compound, how does the pIC50 read?
A: < 7.00

Q: With `CC[C@H]1CN(c2nc(N)c(C(=O)OC)nc2Cl)CCN1C1CCN(Cc2ccc(C#N)cc2O)CC1` [compound 306] as the compound, how does the pIC50 read?
A: < 7.00

Q: With `CC[C@H]1CN(c2nc(N)c(C(=O)OC)nc2Cl)CCN1C1CCN(Cc2ccc(C#N)cc2OCCO)CC1` [compound 307] as the compound, how does the pIC50 read?
A: < 7.00

Q: `CC[C@H]1CN(c2nc(N)c(C(=O)OC)nc2Cl)CCN1C1CCN(Cc2ccc(C#N)cc2OCCOC)CC1` [compound 308] was tested. Which pIC50 did it give?
A: < 7.00

Q: With `CC[C@H]1CN(c2nc(N)c(C(=O)OC)nc2Cl)CCN1C1CCN(Cc2ccc(Cl)cc2CCNC(C)=O)CC1` [compound 309] as the compound, how does the pIC50 read?
A: < 7.00

Q: With `CC[C@H]1CN(c2nc(N)c(C(=O)OC)nc2Cl)CCN1C1(C)CCN(Cc2ccc(Cl)cc2)CC1` [compound 310] as the compound, how does the pIC50 read?
A: < 7.00

Q: How did the pIC50 turn out when `CC[C@H]1CN(c2cnc(C(=O)OC(C)C)c(N)n2)CCN1C1CCN(Cc2ccc(Cl)cc2)CC1` [compound 311] was run?
A: < 7.00

Q: How did the pIC50 turn out when `CC[C@H]1CN(c2nc(N)c(C(=O)N3CCN(C(=O)OC(C)(C)C)CC3)nc2Cl)CCN1C1CCN(Cc2ccc(Cl)cc2)CC1` [compound 312] was run?
A: < 7.00

Q: How did the pIC50 turn out when `CC[C@H]1CN(c2nc(N)c(C(=O)N3CCN(S(C)(=O)=O)CC3)nc2Cl)CCN1C1CCN(Cc2ccc(Cl)cc2)CC1` [compound 313] was run?
A: < 7.00

Q: How did the pIC50 turn out when `CC[C@H]1CN(c2nc(N)c(C(=O)NC3CC3)nc2Cl)CCN1C1CCN(C(=O)c2ccc(Cl)cc2O)CC1` [compound 314] was run?
A: > 7.60

Q: How did the pIC50 turn out when `CC[C@H]1CN(c2nc(N)c(C(=O)NCCO)nc2Cl)CCN1C1CCN(C(=O)c2ccc(Cl)cc2OCCNC(=O)OC(C)(C)C)CC1` [compound 315] was run?
A: > 7.60

Q: `CC[C@H]1CN(c2nc(N)c(C(=O)NCCO)nc2Cl)CCN1C1CCN(C(=O)c2ccc(Cl)cc2OCCNS(=O)(=O)C(F)(F)F)CC1` [compound 316] was tested. Which pIC50 did it give?
A: > 7.60

Q: `CC[C@H]1CN(c2nc(N)c(C(=O)NCCO)nc2Cl)CCN1C1CCN(C(=O)c2ccc(Cl)cc2CC#N)CC1` [compound 317] was tested. Which pIC50 did it give?
A: > 7.60

Q: How did the pIC50 turn out when `CC[C@H]1CN(c2nc(N)c(C(=O)NCCO)nc2Cl)CCN1C1CCN(C(=O)c2ccc(F)c(F)c2)CC1` [compound 318] was run?
A: 7.00 to 7.60

Q: With `CC[C@H]1CN(c2nc(N)c(C(=O)NC[C@H](C)O)nc2Cl)CCN1C1CCN(C(=O)c2ccc(Cl)cc2)CC1` [compound 319] as the compound, how does the pIC50 read?
A: 7.00 to 7.60

Q: How did the pIC50 turn out when `CC[C@H]1CN(c2nc(N)c(C(=O)NC(CO)CO)nc2Cl)CCN1C1CCN(C(=O)c2ccc(Cl)cc2)CC1` [compound 320] was run?
A: 7.00 to 7.60

Q: `CC[C@H]1CN(c2nc(N)c(C(=O)NCCO)nc2Cl)CCN1C1CCN(C(=O)c2ccc(C)cc2O)CC1` [compound 321] was tested. Which pIC50 did it give?
A: 7.00 to 7.60

Q: With `CC[C@H]1CN(c2nc(N)c(C(=O)NCCO)nc2Cl)CCN1C1CCN(C(=O)c2ccc(Cl)cc2O)CC1` [compound 322] as the compound, how does the pIC50 read?
A: 7.00 to 7.60

Q: `CC[C@H]1CN(c2nc(N)c(C(=O)N[C@@H](C)CO)nc2Cl)CCN1C1CCN(C(=O)c2ccc(Cl)cc2)CC1` [compound 323] was tested. Which pIC50 did it give?
A: 7.00 to 7.60

Q: How did the pIC50 turn out when `CCOC(=O)COc1cc(Cl)ccc1C(=O)N1CCC(N2CCN(c3nc(N)c(C(=O)NCCO)nc3Cl)C[C@@H]2CC)CC1` [compound 324] was run?
A: < 7.00

Q: With `CC[C@H]1CN(c2nc(N)c(C(N)=O)nc2Cl)CCN1C1CCN(C(=O)c2ccc(Cl)cc2CN2Cc3ccccc3C2)CC1` [compound 325] as the compound, how does the pIC50 read?
A: < 7.00

Q: `CC[C@H]1CN(c2nc(N)c(C(=O)NCCO)nc2Cl)CCN1C1CCN(C(=O)c2ccc(Cl)cc2OCCN)CC1` [compound 326] was tested. Which pIC50 did it give?
A: < 7.00

Q: How did the pIC50 turn out when `CC[C@H]1CN(c2nc(N)c(C(=O)NCCOCCO)nc2Cl)CCN1C1CCN(C(=O)c2ccc(Cl)cc2)CC1` [compound 327] was run?
A: < 7.00

Q: How did the pIC50 turn out when `CC[C@H]1CN(c2nc(N)c(C(=O)N[C@@H](CO)C(C)O)nc2Cl)CCN1C1CCN(C(=O)c2ccc(Cl)cc2)CC1` (stereo partly drawn) [compound 328] was run?
A: < 7.00

Q: How did the pIC50 turn out when `CC[C@H]1CN(c2nc(N)c(C(=O)N[C@H](CO)C(C)C)nc2Cl)CCN1C1CCN(C(=O)c2ccc(Cl)cc2)CC1` [compound 329] was run?
A: < 7.00

Q: How did the pIC50 turn out when `CC[C@H]1CN(c2nc(N)c(C(=O)NC)nc2Cl)CCN1C1CCN(C(=O)c2ccc(Cl)cc2N)CC1` [compound 330] was run?
A: > 7.60

Q: How did the pIC50 turn out when `CC[C@H]1CN(c2nc(N)c(C(=O)NC)nc2Cl)CCN1C1CCN(C(=O)c2ccc(Br)cc2)CC1` [compound 331] was run?
A: > 7.60

Q: How did the pIC50 turn out when `CCNC(=O)c1nc(Cl)c(N2CCN(C3CCN(C(=O)c4ccc(Cl)cc4)CC3)[C@@H](CC)C2)nc1N` [compound 332] was run?
A: > 7.60

Q: With `CC[C@H]1CN(c2nc(N)c(C(=O)NC)nc2Cl)CCN1C1CCN(C(=O)c2ccc(Br)c(F)c2)CC1` [compound 333] as the compound, how does the pIC50 read?
A: > 7.60

Q: `CC[C@H]1CN(c2nc(N)c(C(=O)NCCO)nc2Cl)CCN1C1CCN(C(=O)c2ccc(Cl)cc2)CC1` [compound 334] was tested. Which pIC50 did it give?
A: > 7.60

Q: With `CC[C@H]1CN(c2nc(N)c(C(=O)N[C@H](C)CO)nc2Cl)CCN1C1CCN(C(=O)c2ccc(Cl)cc2)CC1` [compound 335] as the compound, how does the pIC50 read?
A: > 7.60

Q: `CC[C@H]1CN(c2nc(N)c(C(=O)NC)nc2Cl)CCN1C1CCN(C(=O)c2ccc(Cl)c(F)c2)CC1` [compound 336] was tested. Which pIC50 did it give?
A: > 7.60

Q: With `CCC(O)CNC(=O)c1nc(Cl)c(N2CCN(C3CCN(C(=O)c4ccc(Cl)cc4)CC3)[C@@H](CC)C2)nc1N` (stereo partly drawn) [compound 337] as the compound, how does the pIC50 read?
A: > 7.60

Q: `CC[C@H]1CN(c2nc(N)c(C(=O)NC[C@@H](C)O)nc2Cl)CCN1C1CCN(C(=O)c2ccc(Cl)cc2)CC1` [compound 338] was tested. Which pIC50 did it give?
A: > 7.60

Q: `CC[C@H]1CN(c2nc(N)c(C(=O)NCCO)nc2Cl)CCN1C1CCN(C(=O)c2ccc(Cl)cc2N)CC1` [compound 339] was tested. Which pIC50 did it give?
A: > 7.60

Q: With `CC[C@H]1CN(c2nc(N)c(C(=O)NC)nc2Cl)CCN1C1CCN(C(=O)c2ccc(C#N)cc2)CC1` [compound 340] as the compound, how does the pIC50 read?
A: > 7.60

Q: With `CC[C@H]1CN(c2nc(N)c(C(=O)NC)nc2Cl)CCN1C1CCN(C(=O)c2ccc(Cl)cc2C)CC1` [compound 341] as the compound, how does the pIC50 read?
A: 7.00 to 7.60

Q: `CC[C@H]1CN(c2nc(N)c(C(=O)NC)nc2Cl)CCN1C1CCN(C(=O)c2ccc(Br)cc2F)CC1` [compound 342] was tested. Which pIC50 did it give?
A: 7.00 to 7.60

Q: How did the pIC50 turn out when `CC[C@H]1CN(c2nc(N)c(C(=O)NC)nc2Cl)CCN1C1CCN(C(=O)c2ccc(Cl)cc2O)CC1` [compound 343] was run?
A: 7.00 to 7.60

Q: `CC[C@H]1CN(c2nc(N)c(C(=O)NCCO)nc2Cl)CCN1C1CCN(C(=O)c2ccc(Cl)cc2C(C)C#N)CC1` (stereo partly drawn) [compound 344] was tested. Which pIC50 did it give?
A: 7.00 to 7.60
